According to US9028855B2, “Plant additives and uses thereof to modulate the synthesis of membrane glycerolipids in planta” (Commissariat a l'Energie Atomique et aux Energies …, priority 2009, dated 2015):
“Also recorded” adds a separate entry of the source.

What was measured:
wild type seedlings = assay: Anthocyanins content (spectrophotometric); assay type: in vivo, A. thaliana; parameters: key to Antho: anthocyanin content as A530 - 2.2*A652; settings: accumulation of anthocyanes; +P control 46, −P 1008
Experimental: Anthocyanins were extracted with propanol:HCl:H2O (81:1:18) for 5 min at room temperature and 3 min at 100° C. Samples are centrifuged for 10 min at 4° C. Supernatants were collected and absorption measured at 530 nm and […]. Anthocyanin content was calculated as A530-2.2A652 (Lange et al., 1971).

A. thaliana = assay: Root growth (primary root) of plants on high phosphate medium supplied with compound; assay type: in vivo; settings: for Root Growth: expressed as a percentage having regard to a control, +P control 100, −P 20; for primary root growth (in words): high phosphate medium supplied with compound
From the text: In response to phosphate starvation, the primary root growth is inhibited (Svistoonoff et al., 2007).

[1] = test system: phosphate transporter PHT1;4; assay: 8′G::GUS, follow-up of the expression of the phosphate transporter PHT1;4 (GUS staining); assay type: in vivo, A. thaliana; settings: compound added to the cultivation medium
From the text: 8′G cell line was obtained as follows: for the PHT1;4 promoter fusion, a 2 kb region upstream of the ORF of PHT1;4 was cloned in the vector pENTR/D-TOPO (pENTRT™/D-TOPO® Cloning Kit, ref. K2400-20, Invitrogen) and transferred to pKGWFS7 (Karimi et al., 2002) by recombination using Gateway BP (Gateway® BP Clonase® enzyme mix, ref. 11789-013, Invitrogen) and LR Clonase enzyme mixes (LR Clonase® II Plus enzyme, ref. 12538-120, Invitrogen), respectively, to produce the pPHT1;4:GUS-GFP gene fusion. This fusion was then introduced into the Arabidopsis genome via the Agrobacterium-mediated transformation system (Logemann et al., 2006).
Plants were examined for GUS activity by dipping the samples in a GUS staining solution (50 mM sodium phosphate buffer pH 7.0; 0.01% Triton X-100, 1 mM K3Fe(CN)6, 1 mM K4Fe(CN)6, 1 mg/ml 5-dromo-4-chloro-3-indolyl (3-D-GLUCURONIDE (X-Gluc A) and incubated at 37° C. over-night. After staining, the plants were fixed 2 hours in 50 mM sodium phosphate buffer pH 7.0; 1% glutaraldehyde; 4% formaldehyde.

Row | Structure (SMILES) | Antho (wild type seedlings) | Root Growth (A. thaliana) | primary root growth (in words) (A. thaliana) | PHT1;4 expression (in words, summary of analogues) [1]
1 | CCC1CC(=O)C(=CNc2cc(F)cc(F)c2)C(=O)C1 (stereo not drawn) [#32] | 103 | 13 % of control |  | 
2 | CC1(C)CC(=O)C(=CNc2ccccn2)C(=O)C1 [#15] | 283 | 40 % of control |  | 
3 | Cc1ccnc(NS(=O)(=O)c2ccc(NC=C3C(=O)CC(C)(C)CC3=O)cc2)n1 [#26] | 640 | 6 % of control |  | 
4 | Cc1c(Cl)cccc1NC=C1C(=O)CC(C)(C)CC1=O [#12] | 850 | 57 % of control |  | 
5 | Cc1cccc(NC=C2C(=O)CC(C)(C)CC2=O)c1 [#7] | 172 | 75 % of control | without altering the root growth | induced PHT 1;4 expression
6 | CC(=NO)c1ccc(NC=C2C(=O)CC(C)(C)CC2=O)cc1 [#25] | 405 | 63 % of control |  | 
7 | CC1(C)CC(=O)C(=CNc2ncc(C(F)(F)F)cc2Cl)C(=O)C1 [#20] | 142 | 72 % of control | without altering the root growth; also recorded: do not induce a reduction of the root growth | induced PHT 1;4 expression; also recorded: induce expression of the Pht1;4 gene
8 | O=C1CCCC(=O)C1=CNc1ccc(Cl)cc1Cl [#44] | 123 | 68 % of control | without altering the root growth; also recorded: do not induce a reduction of the root growth | induced PHT 1;4 expression; also recorded: induce expression of the Pht1;4 gene
9 | CC1(C)CC(=O)C(=CNc2ccc(F)cc2)C(=O)C1 [#5] | 110 | 73 % of control | without altering the root growth; also recorded: do not induce a reduction of the root growth | induced PHT 1;4 expression; also recorded: induce expression of the Pht1;4 gene
10 | CC1(C)CC(=O)C(=CNCc2ccccn2)C(=O)C1 [#11] | 163 | 63 % of control | without altering the root growth | induced PHT 1;4 expression
11 | CC1(C)CC(=O)C(=CNc2ccncc2)C(=O)C1 [#13] | 513 | 42 % of control |  | 
12 | CC1(C)CC(=O)C(=CNc2cccnc2)C(=O)C1 [#16] | 431 | 40 % of control |  | 
13 | Cc1ccc(NC=C2C(=O)CC(C)(C)CC2=O)c(C)c1 [#9] | 130 | 71 % of control |  | 
14 | Cc1cccc(CN/C=C2/C(=O)Nc3ccccc32)n1 [#18] | 195 | 88 % of control |  | 
15 | CC1(C)CC(=O)C(=CNc2cccc(Cl)c2)C(=O)C1 [#10] | 225 | 41 % of control |  | 
16 | CC1(C)CC(=O)C(=CNc2cccc([N+](=O)[O-])c2)C(=O)C1 [#24] | 240 | 54 % of control |  | 
17 | CSc1ccc(NC=C2C(=O)CC(C)(C)CC2=O)cc1 [#35] | 208 | 60 % of control |  | 

Row | Structure (SMILES) | Antho (wild type seedlings) | Root Growth (A. thaliana) | primary root growth (in words) (A. thaliana) | PHT1;4 expression (in words, summary of analogues) [1]
18 | CC1(C)CC(=O)C(=CNc2ccc(I)cc2)C(=O)C1 [#8] | 37 | 56 % of control |  | 
19 | Cc1ccc(NC=C2C(=O)CC(C)(C)CC2=O)cc1 [#1] | 274 | 64 % of control | without altering the root growth | induced PHT 1;4 expression
20 | CC1(C)CC(=O)C(=CNc2ccc(F)c(F)c2)C(=O)C1 [#14] | 150 | 61 % of control | without altering the root growth | induced PHT 1;4 expression
21 | CC1(C)CC(=O)C(=CNc2ccc(F)c(Cl)c2)C(=O)C1 [#3] | 806 | 41 % of control |  | 
22 | O=C1CC(c2ccccc2)CC(=O)C1=CNCc1ccccn1 (stereo not drawn) [#17] | 408 | 60 % of control |  | 
23 | Cc1ccc(NC=C2C(=O)CC(C)(C)CC2=O)nc1 [#19] | 193 | 47 % of control |  | 
24 | COc1cccc(NC=C2C(=O)CC(C)(C)CC2=O)c1 [#47] | 324 | 70 % of control | without altering the root growth; also recorded: do not induce a reduction of the root growth | induced PHT 1;4 expression; also recorded: induce expression of the Pht1;4 gene
25 | O=C1CC(c2ccccc2)CC(=O)C1=CNc1ccccc1 (stereo not drawn) [#28] | 247 | 100 % of control | do not induce a reduction of the root growth | induce expression of the Pht1;4 gene
26 | CC1(C)CC(=O)C(=CNc2ccc(Br)cc2)C(=O)C1 [#27] | 43 | 98 % of control | without altering the root growth; also recorded: do not induce a reduction of the root growth | induced PHT 1;4 expression; also recorded: induce expression of the Pht1;4 gene
27 | CC1(C)CC(=O)C(=CNc2ccccc2C(N)=O)C(=O)C1 [#39] | 183 | 60 % of control |  | 
28 | O=C1CCCC(=O)C1=CNc1cc(Cl)cc(Cl)c1 [#33] | 167 | 59 % of control |  | 
29 | CC1(C)CC(=O)C(=CNc2ccc(S(C)(=O)=O)cc2)C(=O)C1 [#36] | 235 | 58 % of control |  | 
30 | CC1(C)CC(=O)C(=CNc2ccc(Br)cc2)C(=O)C1 [#2] | 258 | 59 % of control |  | 
31 | CC1(C)CC(=O)C(=CNc2ccc(O)cc2)C(=O)C1 [#38] | 206 | 60 % of control |  | 
32 | CC(=O)c1ccc(NC=C2C(=O)CC(C)(C)CC2=O)cc1 [#34] | 289 | 59 % of control |  | 
33 | Cc1ccc(NC=C2C(=O)CC(C)(C)CC2=O)cc1Cl [#6] |  | 53 % of control |  | 
34 | CC1(C)CC(=O)C(=CNc2cc(Cl)cc(Cl)c2)C(=O)C1 [#4] | 210 | 50 % of control |  | 
